Measurements from BigSolDB 2.1.

Conditions: in ethanol

CC(C)C1=CC2=CC[C@@H]3[C@](C)(CCC[C@@]3(C)C(=O)O)[C@H]2CC1
Conditions | solubility (mole fraction)
285.07 K | 0.0165
288.7 K | 0.0183
292 K | 0.0202
294.8 K | 0.0219
297.05 K | 0.0235
299.63 K | 0.0253
301.8 K | 0.0272
304.05 K | 0.0291
306.05 K | 0.0311
308.22 K | 0.0335
310.35 K | 0.036
312.35 K | 0.0385
315.23 K | 0.041
316.85 K | 0.0439
319.03 K | 0.0467
